Assay results as given in ChEMBL document CHEMBL1137869 (Bioorg Med Chem Lett, 2004).

How the values were obtained:
[1] = target: T1, Platelet-derived growth factor receptor beta (Homo sapiens, UniProt P09619); assay: In vitro inhibition of Platelet derived growth factor receptor beta autophosphorylation in MG-63 cells with 45% human plasma; format: cell-based
[2] = target: T1, Platelet-derived growth factor receptor beta; assay: In vitro inhibition of Platelet derived growth factor receptor beta autophosphorylation in MG-63 cells without plasma; format: cell-based

T1 sequence (P09619 whole entry): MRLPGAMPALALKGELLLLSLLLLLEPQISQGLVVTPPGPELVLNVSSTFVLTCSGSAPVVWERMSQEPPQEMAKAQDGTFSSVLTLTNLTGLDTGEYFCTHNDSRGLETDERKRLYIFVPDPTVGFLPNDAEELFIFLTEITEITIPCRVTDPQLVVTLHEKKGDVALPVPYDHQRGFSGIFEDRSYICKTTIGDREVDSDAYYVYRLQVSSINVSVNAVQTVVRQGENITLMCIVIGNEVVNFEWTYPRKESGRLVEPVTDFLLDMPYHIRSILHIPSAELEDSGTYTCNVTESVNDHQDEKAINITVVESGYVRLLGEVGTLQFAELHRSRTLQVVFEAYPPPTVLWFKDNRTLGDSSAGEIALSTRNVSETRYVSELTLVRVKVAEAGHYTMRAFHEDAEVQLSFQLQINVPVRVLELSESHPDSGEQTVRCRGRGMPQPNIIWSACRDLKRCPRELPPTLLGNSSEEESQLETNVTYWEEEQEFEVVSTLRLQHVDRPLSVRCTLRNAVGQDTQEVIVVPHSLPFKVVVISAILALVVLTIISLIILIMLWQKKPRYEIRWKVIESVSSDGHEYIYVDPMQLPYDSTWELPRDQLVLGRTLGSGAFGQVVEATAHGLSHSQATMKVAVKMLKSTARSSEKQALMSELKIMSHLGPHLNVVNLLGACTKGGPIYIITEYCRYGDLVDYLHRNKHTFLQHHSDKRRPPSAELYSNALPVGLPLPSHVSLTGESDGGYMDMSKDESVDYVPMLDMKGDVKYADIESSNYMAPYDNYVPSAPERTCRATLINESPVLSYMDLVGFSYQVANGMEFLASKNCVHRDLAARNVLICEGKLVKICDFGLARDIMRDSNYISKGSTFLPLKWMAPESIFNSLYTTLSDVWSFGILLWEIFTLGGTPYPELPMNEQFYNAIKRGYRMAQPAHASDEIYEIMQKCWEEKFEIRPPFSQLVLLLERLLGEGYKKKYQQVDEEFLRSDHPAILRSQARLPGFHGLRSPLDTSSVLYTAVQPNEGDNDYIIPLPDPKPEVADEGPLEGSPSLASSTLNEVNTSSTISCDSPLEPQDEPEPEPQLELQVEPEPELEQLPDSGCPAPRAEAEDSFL

Structure (SMILES) | IC50 [1] | IC50 [2]
COc1cc2c(N3CCN(/C(S)=N\Cc4ccc5c(c4)OCO5)CC3)ncnc2cc1OCCN1CCCC1 | 160 nM | 5 nM
COc1cc2c(N3CCN(/C(S)=N\c4ccc(C(F)(F)F)nc4)CC3)ncnc2cc1OCCN1CCCCC1 | 1060 nM | 4100 nM
COc1cc2c(N3CCN(/C(=N\Cc4ccc(C(C)C)cc4)NC#N)CC3)ncnc2cc1OCCCN1CCCCC1 | 970 nM | 920 nM
COc1cc2c(N3CCN(/C(S)=N\Cc4cccnc4)CC3)ncnc2cc1OCCCN1CCCCC1 | 320 nM | 50 nM
COc1cc2c(N3CCN(C(=S)Nc4ccncc4)CC3)c(C#N)cnc2cc1OCCCN1CCCCC1 | 130 nM | 240 nM
COc1cc2c(N3CCN(C(=S)NCc4csc(C)n4)CC3)ncnc2cc1OCCCN1CCCCC1 | 450 nM | 630 nM
COc1cc2c(N3CCN(C(=S)NCc4cnc(C)cn4)CC3)ncnc2cc1OCCN1CCOCC1 | 230 nM | 1360 nM
COc1cc2c(N3CCN(/C(S)=N\c4ccc(C#N)cc4)CC3)c(C#N)cnc2cc1OCCCN1CCCCC1 | 120 nM | 5 nM
COc1cc2c(N3CCN(/C(S)=N\c4ccc(Br)cc4)CC3)ncnc2cc1OCCN1CCOCC1 | 540 nM | 180 nM
COc1cc2c(N3CCN(/C(S)=N\c4ccc(Br)cc4)CC3)ncnc2cc1OCCN1CCCCC1 | 390 nM | 1010 nM
COc1cc2c(N3CCN(/C(S)=N\Cc4ccc5c(c4)OCO5)CC3)ncnc2cc1OCCN1CCOCC1 | 260 nM | 100 nM
COc1cc2c(N3CCN(/C(S)=N\Cc4ccc(C(F)(F)F)nc4)CC3)ncnc2cc1OCCCN1CCOCC1 | 50 nM | 5 nM
COc1cc2c(N3CCN(C(=S)NCc4ccc(C(F)(F)F)nc4)CC3)ncnc2cc1OCCCN1CCCCC1 | 60 nM | 30 nM
COc1cc2c(N3CCN(C(=S)NCc4csc(-c5ccc(C(F)(F)F)cc5)n4)CC3)ncnc2cc1OCCCN1CCCCC1 | 4470 nM | 3090 nM
COc1cc2c(N3CCN(/C(S)=N\c4ccc(-c5ccccc5)nc4)CC3)c(C#N)cnc2cc1OCCCN1CCCCC1 | 280 nM | 150 nM
COc1cc2c(N3CCN(/C(S)=N\Cc4ccccn4)CC3)ncnc2cc1OCCN1CCCCC1 | – | 4090 nM

Other lines, results leading:

IC50 [1] | IC50 [2] | Structure (SMILES)
5040 nM | 9530 nM | COc1cc2c(N3CCN(C(=S)NCc4ccc(-c5ccncc5)cc4)CC3)ncnc2cc1OCCN1CCCCC1
4980 nM | 3760 nM | COc1cc2c(N3CCN(C(=S)Nc4cccnc4)CC3)ncnc2cc1OCCN1CCCCC1
5190 nM | 14800 nM | COc1cc2c(N3CCN(C(=S)NCc4ccc(-c5cccnc5)cc4)CC3)ncnc2cc1OCCN1CCCCC1
100 nM | 10 nM | COc1cc2c(N3CCN(C(=S)NCc4ccc(-c5ccccc5)nc4)CC3)c(C#N)cnc2cc1OCCCN1CCCCC1
100 nM | 220 nM | COc1cc2c(N3CCN(C(=S)Nc4ccc(-c5ccccn5)cc4)CC3)ncnc2cc1OCCCN1CCCCC1
2450 nM | 13400 nM | COc1cc2c(N3CCN(C(=S)NCc4ccncc4)CC3)ncnc2cc1OCCCN1CCCCC1
1490 nM | 2130 nM | COc1cc2c(N3CCN(C(=S)NCc4ccc(-c5ccccn5)cc4)CC3)ncnc2cc1OCCN1CCCCC1
130 nM | 20 nM | COc1cc2c(N3CCN(/C(S)=N\Cc4ccc(-c5ccccc5)nc4)CC3)ncnc2cc1OCCCN1CCCCC1
130 nM | 220 nM | COc1cc2c(N3CCN(/C(S)=N\c4ccc(-c5ccccn5)cc4)CC3)c(C#N)cnc2cc1OCCCN1CCCCC1
550 nM | 1980 nM | COc1cc2c(N3CCN(C(=S)Nc4ccc(-c5ccccc5)cn4)CC3)ncnc2cc1OCCCN1CCCCC1
470 nM | 350 nM | COc1cc2c(N3CCN(C(=S)Nc4ccc(Br)cc4)CC3)ncnc2cc1OCCN1CCCC1
60 nM | 20 nM | COc1cc2c(N3CCN(C(=S)NCc4ccc(Cl)nc4)CC3)ncnc2cc1OCCCN1CCCCC1
